According to ChEMBL document CHEMBL6127113, “Penicamins A-L, Polyoxygenated Diterpenes from Penicillium camemberti JSB-7212” (J Nat Prod, 2024):
Active and inactive are the calls of the source. The rule behind the calls is not given here.

Tests used:
HeLa = test: Cytotoxicity against human HeLa cells assessed as cell growth inhibition at 50 uM incubated for 48 hrs by CCK-8 assay; assay type: functional, cell-based
A549 = test: Cytotoxicity against human A549 cells assessed as cell growth inhibition at 50 uM incubated for 48 hrs by CCK-8 assay; assay type: functional, cell-based
HT-29 = test: Cytotoxicity against human HT-29 cells assessed as cell growth inhibition at 50 uM incubated for 48 hrs by CCK-8 assay; assay type: functional, cell-based
MCF7 = test: Cytotoxicity against human MCF7 cells assessed as cell growth inhibition at 50 uM incubated for 48 hrs by CCK-8 assay; assay type: functional, cell-based
HepG2 = test: Cytotoxicity against human HepG2 cells assessed as cell growth inhibition at 50 uM incubated for 48 hrs by CCK-8 assay; assay type: functional, cell-based
Escherichia coli = test: Antimicrobial activity against Escherichia coli ATCC35218 assessed as inhibition of microbial growth at 50 uM incubated for 24 hrs by microbroth dilution assay; assay type: functional, organism-based
Staphylococcus aureus = test: Antimicrobial activity against Staphylococcus aureus ATCC25923 assessed as inhibition of microbial growth at 50 uM incubated for 24 hrs by microbroth dilution assay; assay type: functional, organism-based
[1] = Cytotoxicity against male BALB/c mouse Splenocyte cells incubated for 48 hrs by CCK-8 assay; assay type: toxicity, cell-based; settings: splenocytes
Splenocyte [2] = test: Immunosuppressive activity in male BALB/c mouse splenocyte assessed as reduction in LPS-induced B-cell proliferation incubated for 48 hrs by CCK-8 assay; assay type: functional, cell-based
[3] = Selectivity index, ratio of CC50 for cytotoxicity against male BALB/c mouse Splenocyte cells to IC50 for immunosuppressive activity in male BALB/c mouse splenocyte assessed as reduction in LPS-induced B-cell proliferation; assay type: toxicity, cell-based; settings: splenocytes, read-out: Ratio CC50/IC50
Splenocyte [4] = test: Immunosuppressive activity in male BALB/c mouse splenocyte assessed as reduction in ConA-induced T-cell proliferation incubated for 48 hrs by CCK-8 assay; assay type: functional, cell-based
[5] = Selectivity index, ratio of CC50 for cytotoxicity against male BALB/c mouse Splenocyte cells to IC50 for immunosuppressive activity in male BALB/c mouse splenocyte assessed as reduction in ConA-induced T-cell proliferation; assay type: toxicity, cell-based; settings: splenocytes, read-out: Ratio CC50/IC50

Structure (SMILES) | Activity (HeLa) | Activity (A549) | Activity (HT-29) | Activity (MCF7) | Activity (HepG2) | Activity (Escherichia coli) | Activity (Staphylococcus aureus) | CC50 at 48 h [1] | IC50 (Splenocyte [2]) | selectivity ratio [3] | IC50 (Splenocyte [4]) | selectivity ratio [5]
C=C(C)[C@H]1CC[C@@]23CO[C@@](O)(C[C@@]12O)[C@@]1(C)C[C@H]2O[C@]13[C@@H](O)C(=O)[C@H]2C | inactive | inactive | inactive | inactive | inactive | inactive | inactive | – | – | – | – | –
C=C(C)[C@H]1CC[C@]2(C)[C@@]34CC(=O)[C@@H](C)[C@@H](C[C@]3(C)C(=O)C[C@@]12O)O4 | inactive | inactive | inactive | inactive | inactive | inactive | inactive | – | – | – | – | –
C=C(C)[C@H]1CC[C@@]23CO[C@@]4(O)C(=O)C(C)=CC[C@](C)(C(=O)C[C@@]12O)[C@@]34O | inactive | inactive | inactive | inactive | inactive | inactive | inactive | – | – | – | – | –
C=C(C)[C@H]1CC[C@@]23CO[C@@](O)(C[C@@]12O)[C@@]1(C)C[C@H]2O[C@]13C(=O)C(O)=C2C | inactive | inactive | inactive | inactive | inactive | inactive | inactive | – | – | – | – | –
C=C(C)[C@H]1[C@H](O)C[C@]2(C)[C@@]34CC(=O)[C@@H](C)[C@@H](C[C@]3(C)C(=O)C[C@@]12O)O4 | inactive | inactive | inactive | inactive | inactive | inactive | inactive | – | – | – | – | –
C=C(CO)[C@H]1CC[C@@]2(C)C1=CC(=O)[C@@]1(C)C[C@H]3O[C@@]21CC(=O)[C@H]3C | inactive | inactive | inactive | inactive | inactive | inactive | inactive | > 50 µM | 7.9 µM | > 6.3 | 20 µM | > 2.5
C=C(C)[C@H]1CC[C@]2(C)[C@@]3(O)CC(=O)C(C)=CC[C@]3(C)C(=O)C[C@@]12O | inactive | inactive | inactive | inactive | inactive | inactive | inactive | – | – | – | – | –
C=C(C)[C@H]1CC[C@]2(C)[C@@]34C[C@@H](O)[C@@H](C)[C@@H](C[C@]3(C)C(=O)C[C@@]12O)O4 | inactive | inactive | inactive | inactive | inactive | inactive | inactive | – | – | – | – | –
C=C(C)[C@H]1CC[C@@]23CO[C@@]4(O)C(=O)[C@@H](C)CC[C@](C)(C(=O)C[C@@]12O)[C@@]34O | inactive | inactive | inactive | inactive | inactive | inactive | inactive | – | – | – | – | –
C=C(C)[C@H]1CC[C@]2(C)C3=CC(=O)C(C)=CC[C@]3(C)C(=O)C[C@@]12O | inactive | inactive | inactive | inactive | inactive | inactive | inactive | – | – | – | – | –
C=C(CO)[C@H]1CC[C@]2(C)[C@@]34CC(=O)[C@@H](C)[C@@H](C[C@]3(C)C(=O)C[C@@]12O)O4 | inactive | inactive | inactive | inactive | inactive | inactive | inactive | > 50 µM | 3 µM | > 17 | 19 µM | > 2.6
